Measured values: ChEMBL document CHEMBL1926664, “Synthesis and antiproliferative evaluation of 6-aryl-11-iminoindeno[1,2-c]quinoline derivatives” (2011)

Legend:
MCF7 = assay: Growth inhibition of human MCF7 cells after 72 hrs by XTT assay; assay type: functional; conditions: MCF7, 72 h
MDA-MB-231 = assay: Growth inhibition of human MDA-MB-231 cells after 72 hrs by XTT assay; assay type: functional; conditions: MDA-MB-231, 72 h
A549 = assay: Growth inhibition of human A549 cells after 72 hrs by XTT assay; assay type: functional; conditions: A549, 72 h
[1] = Growth inhibition of human H1299 cells after 72 hrs by XTT assay; assay type: functional; conditions: NCI-H1299, 72 h
HepG2 = assay: Growth inhibition of human HepG2 cells after 72 hrs by XTT assay; assay type: functional; conditions: HepG2, 72 h
[2] = Growth inhibition of human Hep3B cells after 72 hrs by XTT assay; assay type: functional, Hep 3B2

| SMILES | GI50 (MCF7) [µM] | GI50 (MDA-MB-231) [µM] | GI50 (A549) [µM] | GI50 [1] [µM] | GI50 (HepG2) [µM] | GI50 [2] [µM] |
| --- | --- | --- | --- | --- | --- | --- |
| COc1ccc(-c2nc3ccc(F)cc3c3c2-c2ccc(OC)cc2/C3=N\O)cc1 | > 10 | > 10 | > 10 | > 10 | > 10 | > 10 |
| COc1ccc(-c2nc3ccc(F)cc3c3c2-c2ccc(OC)cc2/C3=N\OCCCN(C)C)cc1 | 6.18 | 0.7 | 0.91 | 0.61 | 5.75 | 0.66 |
| CN(C)CCCO/N=C1\c2cc(O)ccc2-c2c(-c3ccc(O)cc3)nc3ccc(F)cc3c21 | 6.28 | 4.74 | 6.46 | 6.3 | 6.24 | 0.69 |
| COc1ccc(-c2nc3ccccc3c3c2-c2ccc(OC)cc2/C3=N\OCCCN(C)C)cc1 | 6.57 | 7.01 | 6.69 | 6.61 | 6.54 | 3.14 |
| Oc1ccc2c(c1)/C(=N\OCCN1CCCC1)c1c-2c(-c2ccc(OCCN3CCCC3)cc2)nc2ccc(F)cc12 | 6.04 | 0.48 | 0.31 | 0.7 | 1.08 | 0.47 |
| CN(C)CCCO/N=C1\c2cc(OCCCN(C)C)ccc2-c2c(-c3ccc(O)cc3)nc3ccc(F)cc3c21 | 6.25 | 0.67 | 0.42 | 0.84 | 0.66 | 0.56 |
| COc1ccc(-c2nc3ccc(OC)cc3c3c2-c2ccc(OC)cc2/C3=N\OCCCN(C)C)cc1 | 6.3 | 6.13 | 6.62 | 5.7 | 5.95 | 6.49 |
| COc1ccc(-c2nc3ccccc3c3c2-c2ccc(OC)cc2/C3=N\OCCN2CCCC2)cc1 | 6.71 | 5.33 | 5.27 | 6.31 | 5.48 | 4.68 |
| COc1ccc(-c2nc3ccc(OC)cc3c3c2-c2ccc(OC)cc2/C3=N\OCCN2CCCC2)cc1 | 6.25 | 5.15 | 6.42 | 6.54 | 6.03 | 6.17 |
| Oc1ccc(-c2nc3ccc(F)cc3c3c2-c2ccc(OCCN4CCCC4)cc2/C3=N\OCCN2CCCC2)cc1 | 6.2 | 0.33 | 0.53 | 7.09 | 5.71 | 0.23 |
| Oc1ccc(-c2nc3ccccc3c3c2-c2ccc(O)cc2/C3=N\OCCN2CCCC2)cc1 | 7.83 | 0.58 | 0.88 | 6.06 | 5.74 | 0.52 |
| COc1ccc(-c2nc3ccc(OC)cc3c3c2-c2ccc(OC)cc2/C3=N\O)cc1 | > 10 | > 10 | > 10 | > 10 | > 10 | > 10 |
| CC[C@@]1(O)C(=O)OCc2c1cc1n(c2=O)Cc2cc3c(CN(C)C)c(O)ccc3nc2-1 [TOPOTECAN] | > 10 | 0.078 | – | > 10 | – | 0.22 |
| CN(C)CCCO/N=C1\c2cc(O)ccc2-c2c(-c3ccc(O)cc3)nc3ccccc3c21 | 6.06 | 0.93 | 0.5 | 6.94 | 1.55 | 0.67 |
| CN(C)CCCO/N=C1\c2cc(OCCCN(C)C)ccc2-c2c(-c3ccc(O)cc3)nc3ccccc3c21 | > 10 | 3.07 | 2.1 | 5.3 | 4.96 | 5.41 |
| O/N=C1\c2cc(O)ccc2-c2c(-c3ccc(O)cc3)nc3ccc(F)cc3c21 | 8.77 | 8.41 | > 10 | > 10 | > 10 | 7.6 |
| COc1ccc(-c2nc3ccc(F)cc3c3c2-c2ccc(OC)cc2/C3=N\OCCN2CCCC2)cc1 | 6.36 | 5.99 | 9.24 | 3.15 | 9.46 | 3.11 |
| COc1ccc(-c2nc3ccc(F)cc3c3c2-c2ccc(OC)cc2/C3=N\OCCN2CCCCC2)cc1 | > 10 | > 10 | > 10 | > 10 | > 10 | > 10 |
| COc1ccc(-c2nc3ccccc3c3c2-c2ccc(OC)cc2/C3=N\OCCN2CCCCC2)cc1 | > 10 | > 10 | > 10 | > 10 | > 10 | 8.29 |
| COc1ccc(-c2nc3ccccc3c3c2-c2ccc(OC)cc2/C3=N\O)cc1 | > 10 | > 10 | > 10 | > 10 | > 10 | > 10 |
| Oc1ccc(-c2nc3ccc(F)cc3c3c2-c2ccc(O)cc2/C3=N\OCCN2CCCC2)cc1 | 6.26 | 0.68 | 0.84 | 6.48 | 5.04 | 0.64 |
| Oc1ccc(-c2nc3ccccc3c3c2-c2ccc(OCCN4CCCC4)cc2/C3=N\OCCN2CCCC2)cc1 | 6.42 | 0.68 | 0.79 | 6.51 | 4.09 | 0.78 |
| CN(C)CCCO/N=C1\c2cc(O)ccc2-c2c(-c3ccc(OCCCN(C)C)cc3)nc3ccccc3c21 | 6.65 | 0.63 | 2.03 | 0.69 | 3.77 | 0.61 |
| O/N=C1\c2cc(O)ccc2-c2c(-c3ccc(O)cc3)nc3ccccc3c21 | > 10 | 8.47 | > 10 | > 10 | > 10 | > 10 |
| CCc1c2c(nc3ccc(OC(=O)N4CCC(N5CCCCC5)CC4)cc13)-c1cc3c(c(=O)n1C2)COC(=O)[C@]3(O)CC [IRINOTECAN] | > 10 | 9.17 | > 10 | > 10 | – | – |
| Oc1ccc2c(c1)/C(=N\OCCN1CCCC1)c1c-2c(-c2ccc(OCCN3CCCC3)cc2)nc2ccccc12 | 5.92 | 0.51 | 0.54 | 0.57 | 4.11 | 0.92 |
